Consider 31 compounds from patent US10865191B2, “Heterocyclic compounds useful as modulators of TNF alpha” (BRISTOL-MYERS SQUIBB COMPANY, priority 2015, dated 2020).

Counter-ions that a name gives are not always drawn. Like-named read-outs stand apart in the source and are kept apart here.

The test has as its target TNFα (Homo sapiens, UniProt P01375). In words: TNF induced HEK-Blue assay (NF-kB-driven secreted alkaline phosphatase reporter). It is filed as cell-based. To be noted: TNFα 0.5 ng/mL, HEK-Blue-CD40L cells, 18 h. In a few lines: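 HEK-Blue-CD40L cells (NF-kB-driven SEAP reporter), 20,000/well, added after 30 min pre-incubation of compound (0.004–25 μM final) with TNFα 0.5 ng/mL final at 37 °C; 18 h incubation. SEAP read with QUANTI-Blue at 620 nm; IC50 from 4-parameter logistic fit, normalized to unstimulated and stimulated DMSO controls.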

The mark [1] stands for this setting: read-out: TNF induced HEK-Blue assay IC50 value.
The mark [2] stands for this setting: TNF induced HEK-Blue assay IC50 value.

TNFα, sequence (P01375 77-233 limits assumed): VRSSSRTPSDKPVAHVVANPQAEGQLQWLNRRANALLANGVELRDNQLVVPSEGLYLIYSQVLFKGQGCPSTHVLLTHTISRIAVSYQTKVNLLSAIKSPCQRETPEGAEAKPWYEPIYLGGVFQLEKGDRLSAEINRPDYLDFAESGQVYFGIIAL

As to `Cc1nc2ccc(-c3cnc(C(C)(C)O)nc3)cc2c(N[C@H](C)c2cc(C(C)(C)O)ccc2F)c1Cl` [Example 408, (R)-2-(5-(3-chloro-4-((1-(2-fluoro-5-(2-hydroxypropan-2-yl)phenyl)ethyl)amino)-2-methylquinolin-6-yl)pyrimidin-2-yl)propan-2-ol, TFA Salt], under setting [1], the IC50 was below 1 µM. Still for that read-out and setting: the value for `C[C@@H](Nc1c(Cl)cnc2cc(F)c(-c3cnc(C(C)(C)O)nc3)nc12)c1cc(C(=O)O)ccc1F` [Example 579, (R)-3-(1-((3-chloro-7-fluoro-6-(2-(2-hydroxypropan-2-yl)pyrimidin-5-yl)-1,5-naphthyridin-4-yl)amino)ethyl)-4-fluorobenzoic acid] was 1 to 10 µM.

`CCc1ccc(-c2ccc(F)c([C@@H](C)Nc3c(Cl)cnc4ccccc34)c2)cn1` [Example 508, (R)-3-chloro-N-(1-(5-(6-ethylpyridin-3-yl)-2-fluorophenyl)ethyl)quinolin-4-amine]: the IC50 under setting [1] was below 1 µM. On the same count and under the same terms, in the case of `Cc1nc2ccc(-c3cnc(N4CCOCC4)nc3)cc2c(NC(C)c2ccccc2F)c1Cl` (racemic) [Example 311, 3-chloro-N-(1-(2-fluorophenyl)ethyl)-2-methyl-6-(2-morpholinopyrimidin-5-yl)quinolin-4-amine] it was below 1 µM.

`C[C@@H](Nc1c(Cl)cnc2ccc(-c3ccc(C(C)(C)O)cc3)cc12)c1ccccc1F` [Example 228, (R)-2-(4-(3-chloro-4-((1-(2-fluorophenyl)ethyl)amino)quinolin-6-yl)phenyl)propan-2-ol]: under setting [2], the IC50 is below 1 µM. With `CC(O)C(=O)N1CCN(c2ncc(-c3cc4c(NC(C)c5ccccc5F)c(Cl)cnc4cc3F)cn2)CC1` (single isomer, unassigned) [Example 603, 1-(4-(5-(3-chloro-7-fluoro-4-((1-(2-fluorophenyl)ethyl)amino)quinolin-6-yl)pyrimidin-2-yl)piperazin-1-yl)-2-hydroxypropan-1-one], the IC50 under setting [1] was below 1 µM. On to `CC(Nc1c(Cl)cnc2cc(F)c(-c3cc(F)c(C(C)(C)O)c(F)c3)cc12)c1ccccc1F` (stereo not shown) [Example 268, 2-(4-(3-chloro-7-fluoro-4-((1-(2-fluorophenyl)ethyl)amino)quinolin-6-yl)-2,6-difluorophenyl) propan-2-ol], for which, under setting [1], the IC50 is below 1 µM. Still for that read-out and setting: the value for `CC(C)(O)c1ncc(-c2ccc3ncc(Cl)c(CNc4ccccc4)c3c2)cn1` [Example 11, 2-(5-(3-chloro-4-((phenylamino)methyl)quinolin-6-yl)pyrimidin-2-yl)propan-2-ol] was 10 to 25 µM. `CCOc1ncc(-c2ccc3ncc(Cl)c(N[C@H](C)c4ccccc4F)c3c2)cn1` [Example 222, (R)-3-chloro-6-(2-ethoxypyrimidin-5-yl)-N-(1-(2-fluorophenyl)ethyl)quinolin-4-amine]: under setting [2], the IC50 is below 1 µM.

Regarding `Cc1ccccc1-c1ccc(F)c([C@@H](C)Nc2c(Cl)c(C)nc3ccc(-c4cnc(C(C)(C)O)nc4)cc23)c1` [Example 332, (R)-2-(5-(3-chloro-4-((1-(4-fluoro-2′-methyl-[1,1′-biphenyl]-3-yl)ethyl)amino)-2-methylquinolin-6-yl)pyrimidin-2-yl)propan-2-ol], the IC50 under setting [1] was below 1 µM. The same measure, in the same setting: the value for `Cc1nc2ccc(-c3cnc(C(C)(C)O)nc3)cc2c(N[C@H](C)c2cc(C(N)=O)ccc2F)c1Cl` [Example 387, (R)-3-(1-((3-chloro-6-(2-(2-hydroxypropan-2-yl)pyrimidin-5-yl)-2-methylquinolin-4-yl)amino)ethyl)-4-fluorobenzamide] was below 1 µM; that for `O=C(O)CC1CCN(c2ncc(-c3ccc4ncc(Cl)c(N[C@@H](c5ccccc5F)C(F)F)c4c3)cn2)CC1` [Example 78, (S)-2-(1-(5-(3-chloro-4-((2,2-difluoro-1-(2-fluorophenyl)ethyl)amino)quinolin-6-yl)pyrimidin-2-yl)piperidin-4-yl)acetic acid] was below 1 µM; that for `CC1=C(CC(C)Nc2c(Cl)cnc3ccc(-c4cnc(C(C)(C)O)nc4)cc23)CCC1(C)C` (racemic) [Example 134, 2-(5-(3-chloro-4-((1-(2,3,3-trimethylcyclopent-1-en-1-yl)propan-2-yl)amino)quinolin-6-yl)pyrimidin-2-yl) propan-2-ol] was 1 to 10 µM.

Turning to `Cc1cnc2ccc(-c3cnc(C(C)(C)O)nc3)cc2c1N[C@H](C)c1ccccc1F` [Example 240, (R)-2-(5-(4-((1-(2-fluorophenyl)ethyl)amino)-3-methylquinolin-6-yl)pyrimidin-2-yl)propan-2-ol], the IC50 under setting [1] was below 1 µM. The same measure, in the same setting: in the case of `Cc1nc2ccc(-c3cnc(C(C)(C)O)nc3)cc2c(N[C@H](C)c2cc(-c3cc[nH]n3)ccc2F)c1Cl` [Example 336, (R)-2-(5-(3-chloro-4-((1-(2-fluoro-5-(1H-pyrazol-3-yl)phenyl)ethyl)amino)-2-methylquinolin-6-yl)pyrimidin-2-yl)propan-2-ol] it was below 1 µM. Consider `C[C@@H](Nc1c(Cl)cnc2ccc(-c3ccc(CNC(N)=O)cc3)cc12)c1ccccc1F` [Example 569, (R)-1-(4-(3-chloro-4-((1-(2-fluorophenyl)ethyl)amino)quinolin-6-yl)benzyl)urea], for which the IC50 under setting [1] is below 1 µM. Same read-out and setting: the value for `Cc1nc2ccc(-c3cnc(C(C)(C)O)nc3)cc2c(N[C@H](C)c2cc(Cl)ccc2F)c1Cl` [Example 406, (R)-2-(5-(3-chloro-4-((1-(5-chloro-2-fluorophenyl)ethyl)amino)-2-methylquinolin-6-yl)pyrimidin-2-yl)propan-2-ol] was below 1 µM. The same measure, in the same setting: in the case of `CC(Nc1c(Cl)cnc2ccc(-c3ccc(C(C)(C)O)cc3)cc12)c1cccnc1` (racemic) [Example 166, 2-(4-(3-chloro-4-((1-(pyridin-3-yl)ethyl)amino)quinolin-6-yl)phenyl)propan-2-ol] it was 10 to 25 µM. Same read-out and setting: the value for `CC(Nc1c(Cl)cnc2cc(F)c(-c3cnc(C#N)nc3)cc12)c1ccccc1F` (stereo not shown) [Example 255, 5-(3-chloro-7-fluoro-4-((1-(2-fluorophenyl)ethyl)amino)quinolin-6-yl)pyrimidine-2-carbonitrile] was 1 to 10 µM; that for `C[C@@H](Nc1c(Cl)cnc2ccc(-c3ccc(C(N)CC(=O)O)cc3)cc12)c1ccccc1F` (mixture of isomers) [Example 115, 3-amino-3-(4-(3-chloro-4-(((R)-1-(2-fluorophenyl)ethyl)amino)quinolin-6-yl)phenyl)propanoic acid] was 1 to 10 µM.

Turning to `C[C@@H](Nc1c(Cl)cnc2ccc(-c3cnc(C(C)(C)O)nc3)cc12)c1cc(CO)ccc1F` [Example 430, (R)-2-(5-(3-chloro-4-((1-(2-fluoro-5-(hydroxymethyl)phenyl)ethyl)amino)quinolin-6-yl)pyrimidin-2-yl)propan-2-ol], under setting [1], the IC50 was below 1 µM. The same measure, in the same setting: the value for `CC(Nc1c(Cl)cnc2ccc(-c3ccc(C(C)(C)O)cc3)cc12)c1ncccn1` (racemic) [Example 177, 2-(4-(3-chloro-4-((1-(pyrimidin-2-yl)ethyl)amino)quinolin-6-yl)phenyl)propan-2-ol] was below 1 µM. As for `C[C@@H](Nc1c(Cl)cnc2ccc(-c3ccc(S(C)(=O)=O)nc3)cc12)c1ccccc1F` [Example 221, (R)-3-chloro-N-(1-(2-fluorophenyl)ethyl)-6-(6-(methylsulfonyl)pyridin-3-yl)quinolin-4-amine], the IC50 under setting [2] is below 1 µM. Turning to `C[C@@H](Nc1c(Cl)cnc2ccccc12)c1cc(-c2ccccc2C#N)ccc1F` [Example 552, (R)-3′-(1-((3-chloroquinolin-4-yl)amino)ethyl)-4′-fluoro-[1,1′-biphenyl]-2-carbonitrile], under setting [1], the IC50 is below 1 µM. On the same count and under the same terms, the value for `Cc1nc2ccc(-c3cnc(C(C)(C)O)nc3)cc2c(N[C@H](C)c2cc(C(=O)O)ccc2F)c1Cl` [Example 407, (R)-3-(1-((3-chloro-6-(2-(2-hydroxypropan-2-yl)pyrimidin-5-yl)-2-methylquinolin-4-yl)amino)ethyl)-4-fluorobenzoic acid] was 10 to 25 µM; that for `Cc1nc2cc(F)c(-c3cnc(N4CCNC(=O)C4)nc3)cc2c(N[C@H](C)c2cc(Br)ccc2F)c1Cl` [Example 560, (R)-4-(5-(4-((1-(5-bromo-2-fluorophenyl)ethyl)amino)-3-chloro-7-fluoro-2-methylquinolin-6-yl)pyrimidin-2-yl)piperazin-2-one] was 1 to 10 µM; that for `CC(C)(O)c1ncc(-c2ccc3ncc(Cl)c(NC(c4ccccc4F)C(F)F)c3c2)cn1` (single isomer, unassigned) [Example 55, 2-(5-(3-chloro-4-((2,2-difluoro-1-(2-fluorophenyl)ethyl)amino)quinolin-6-yl)pyrimidin-2-yl)propan-2-ol] was below 1 µM. `CC(Nc1c(Cl)cnc2ccc(-c3cnc(N4CCNC(=O)C4)nc3)cc12)c1nc(N)ccc1F` (stereo not shown) [Example 562, 4-(5-(4-((1-(6-amino-3-fluoropyridin-2-yl)ethyl)amino)-3-chloroquinolin-6-yl)pyrimidin-2-yl) piperazin-2-one]: the IC50 under setting [1] was below 1 µM.

Take `C[C@@H](Nc1c(Cl)cnc2ccc(-c3ccc(C4(NC(N)=O)CCC4)cc3)cc12)c1ccccc1F` [Example 483, (R)-1-(1-(4-(3-chloro-4-((1-(2-fluorophenyl)ethyl)amino)quinolin-6-yl)phenyl)cyclobutyl)urea]: under setting [1], the IC50 lay within 1 to 10 µM. Same read-out and setting: the value for `CCCCCC(C)Nc1c(Cl)cnc2ccc(-c3cnc(C(C)(C)O)nc3)cc12` (racemic) [Example 139, 2-(5-(3-chloro-4-(heptan-2-ylamino)quinolin-6-yl)pyrimidin-2-yl) propan-2-ol] was below 1 µM.

`C[C@@H](Nc1c(Cl)cnc2ccccc12)c1cc(-c2cn(C)nc2C(F)(F)F)ccc1F` [Example 472, (R)-3-chloro-N-(1-(2-fluoro-5-(1-methyl-3-(trifluoromethyl)-1H-pyrazol-4-yl)phenyl)ethyl)quinolin-4-amine]: the IC50 under setting [1] was 1 to 10 µM.

One may read the IC50 as the concentration that inhibits the measured activity by half.
